For assay [1], the target named is T1, OYERo2 (Rhodococcus opacus, UniProt A0A1B1KA86).
T1 construct: gene O4328_33150; full length, N-terminal His10-tag kept, codon-optimised synthetic gene (1101 bp) in pET16bP, E. coli BL21 (DE3); 387 residues, theoretical 41,615 Da; variant OYERo2a is GenBank KR349312
Briefly: flavin absorption spectra (charge-transfer complex). It is filed as binding. To be noted: phenolic ligand. From the text: flavin absorption spectra (charge-transfer complex) on OYERo2 | OYERo2 forms charge-transfer complexes with phenolic ligands. Next to 4-hydroxybenzaldehyde

Assay [2] has as its target T1, OYERo2. The assay is described as follows: absorption spectra and RP-HPLC of extracted flavin. Format: binding. Conditions: non-covalent, 1:1, co-purified.
In assay [3] the target is T2, OYERo2 (Rhodococcus opacus, UniProt A0A1B1KA86, A92R/Q93R/L94I/E95R/Y96E).
T2 construct: gene O4328_33150; full length, N-terminal His10-tag kept, codon-optimised synthetic gene (1101 bp) in pET16bP, E. coli BL21 (DE3); 387 residues, theoretical 41,615 Da; variant OYERo2a is GenBank KR349312
T2 sequence (A0A1B1KA86 entry or part of it A92R/Q93R/L94I/E95R/Y96E): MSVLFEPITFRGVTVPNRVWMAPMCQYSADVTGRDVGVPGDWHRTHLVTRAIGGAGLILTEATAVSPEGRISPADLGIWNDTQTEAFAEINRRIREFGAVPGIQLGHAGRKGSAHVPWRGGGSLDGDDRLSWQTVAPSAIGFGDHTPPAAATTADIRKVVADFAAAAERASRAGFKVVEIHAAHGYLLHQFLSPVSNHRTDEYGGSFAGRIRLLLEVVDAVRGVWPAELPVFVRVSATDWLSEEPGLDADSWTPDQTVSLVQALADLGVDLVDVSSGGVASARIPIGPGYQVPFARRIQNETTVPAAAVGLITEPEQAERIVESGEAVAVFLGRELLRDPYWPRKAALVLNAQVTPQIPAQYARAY
Briefly: absorption spectra and RP-HPLC of extracted flavin. It is filed as binding. To be noted: variant OYERo2a; same.

The target in assay [4] is OYERo2, ene-reductase (old yellow enzyme) from Rhodococcus opacus 1CP (Rhodococcus opacus 1CP). Briefly: SEC; analytical gel filtration, Superdex 200 HR 10/30, room temperature, 50 mM phosphate buffer pH 7.1 with 150 mM NaCl; high protein concentration (119 uM for OYERo2).
The target is the same in assay [5]. The assay is described as follows: SEC; analytical gel filtration, Superdex 200 HR 10/30, room temperature, 50 mM phosphate buffer pH 7.1 with 150 mM NaCl; 30 uM enzyme, elution buffer with 200 uM NADPH. (SEC sorts molecules by how far they enter the pores of the column.)
Assay [6] has the same target. Briefly: SEC; analytical gel filtration, Superdex 200 HR 10/30, room temperature, 50 mM phosphate buffer pH 7.1 with 150 mM NaCl; lower protein concentration (59 and 30 uM for OYERo2).

T1 sequence (A0A1B1KA86 entry or part of it): as the sequence (A0A1B1KA86 entry or part of it A92R/Q93R/L94I/E95R/Y96E) above, with R92A, R93Q, I94L, R95E, E96Y counted along it

Regarding `O=Cc1ccc(O)cc1` [4-hydroxybenzaldehyde], in assay [1], the “flavin absorption spectra (charge-transfer complex)” value is listed as “OYERo2 forms charge-transfer complexes with phenolic ligands. Next to 4-hydroxybenzaldehyde”.

As to `Cc1cc2nc3c(=O)[nH]c(=O)nc-3n(C[C@H](O)[C@H](O)[C@H](O)COP(=O)(O)O)c2cc1C` [FMN], the “absorption spectra and RP-HPLC of extracted flavin” value is “The type of flavin cofactor was identified as FMN using RP-HPLC” in assay [2]; “RP-HPLC on flavin samples extracted from purified OYERo2 and OYERo2a” in assay [3].

The term stoichiometry N denotes the number of molecules, sites or subunits per partner or assembly. As to “OYERo2, ene-reductase (old yellow enzyme) from Rhodococcus opacus 1CP”, the stoichiometry N is 4 in assay [4], 2 in assay [5] and 2 in assay [6].

The record behind these values is PMC4589676, “Functional characterization and stability improvement of a ‘thermophilic-like’ ene-reductase from Rhodococcus opacus 1CP” (Frontiers in Microbiology, 2015).
